Data published in patent US20210309669A1, “Heterocyclic Spiro Compounds As MAGL Inhibitors” (Pfizer Inc., priority 2018, published 2021).

How the values were obtained:
[1] = Dog intravenous pharmacokinetic study; format: in vivo, Male beagle dogs; conditions: male, beagle, IV dose of 1 mg/kg, plasma, read-out: Dog t1/2 (converted)
Method: The pharmacokinetic studies in dog were conducted at Pfizer Global Research and Development (Groton, Conn.). All in vivo studies were conducted in accordance with regulations and established guidelines using protocols reviewed and approved by the Pfizer Worldwide Research and Development (WRD, or other) Institutional Animal Care and Use Committee.
Male beagle dogs were fasted overnight with water provided ad libitium. The dogs were fed at approximately 2-4 h post-dose. The dogs (n=2) were administered an IV bolus via the cephalic vein. Compounds of Examples 1-3 were tested along with the following four comparative compounds.
All test compounds were administered an IV dose of 1 mg/kg of the specified compound which was delivered in a dose volume of 0.5 mL/kg. The dose solution was formulated in 10% PEG400/90% of 23% (w/v) HPBCD in de-ionized water for the following test compounds: Example 1, Example 2, and Example 3; in 20% SBECD (sulfobutyl either β-cyclodextrin) for Comparative-Compound 3; in 23% (w/v) HPBCD (hydroxypropyl β-cyclodextrin) in water for Comparative Compound 2; in 12.5.% SBECD in water with 0.25% 0.1N HCl to pH 5 for Comparative Compound 1. Serial blood samples were collected from each dog via the jugular vein prior to dose administration and at the following time points post-dose: 0.083, 0.25, 0.5, 1, 2, 4, 7, and 24 h for all compounds with an additional time point of 0.016 h collected for Comparative Compound 1 only. Blood samples were collected into tubes containing EDTA and placed on wet ice. Following centrifugation to afford plasma, the samples were transferred to polypropylene tubes and stored frozen at −20° C. to −80° C. until analysis.
All plasma samples were quantified via liquid chromatography/tandem mass spectrometry (LC/MS-MS) using multiple reaction monitoring with non-validated methods. The plasma standard curves were generated with species specific plasma. Pharmacokinetic parameters were determined by non-compartmental analysis using Watson LIMS software version 7.4 (Thermo Fisher Scientific, Waltham, Mass.). The area under the concentration versus time curve (AUC) was calculated from the first time point to the last time point with measurable drug concentration using a linear trapezoidal rule. The area under the concentration versus time curve from the first time point to time infinity (AUC(0-inf)) was calculated by extrapolation from the time point where the last measurable concentration occurred to time infinity by dividing the observed concentration at the last time point by the elimination rate constant determined using linear regression of plasma concentration versus time data. The plasma clearance (CLp) was calculated by the equation CLp=dose/AUC(0-inf). The elimination half-life (t½) was calculated using the following equation t1/2=ln 2/k; k is equal to the rate constant of elimination calculated by the least squares of the log transformed data.

[2] = In vitro intrinsic clearance in human hepatocytes; format: in vitro ADME; conditions: 1 μM substrate, human hepatocytes 0.5 million viable cells per mL, 37° C.
Method: Test Compounds (Example 1-3 and Comparative-Compounds 1-4) were prepared as solutions in DMSO at 3 mM which were then diluted in media containing WEM. The final concentration of DMSO in the incubation was 0.03% (v/v). The in vitro half-life (t½) of each compound was determined in incubations containing substrate (1 μM), human hepatocytes (0.5 million viable cells per mL final concentration) in media containing WEM, 50 mM HEPES buffer (pH 7.4), and 26 mM sodium bicarbonate at 37° C. (all final concentrations) in a 96-well plate. The reaction mixture was pre-warmed at 37° C. for 30 min prior to the initiation of the incubation. The incubation was quenched with acetonitrile containing internal standards at the following time points: 0, 5, 15, 30, 60, 120, and 240 min (individual incubation plates per time point). The samples were vortexed followed by centrifugation. An aliquot of supernatant was transferred to a clean 96-well plate and analyzed by LC/MS-MS using multiple reaction monitoring. For control experiments, hepatocytes were omitted from the incubations.
The hepatocyte t½ (min) was obtained from a log-linear plot of the substrate depletion versus incubation time and was scaled to hepatic intrinsic clearance (CLint,app (μL/min/million cells) using the following equation: […]

[3] = Mouse subcutaneous neuropharmacokinetics study; format: in vivo, Male C57Bl6 mice; conditions: male, C57Bl6, mouse, brain (cerebellum homogenate) and plasma, sc, subcutaneous dose of 1 mg/kg, read-out: Mouse Cb,u/Cp,u
Method: The neuropharmacokinetics studies in mouse were conducted at Wuxi (Shanghai, China) with bioanalysis conducted at BioDuro (Beijing, China) with the exception of the Comparative-compound 3, which bioanalysis was conducted at Wuxi. All in vivo studies were conducted in accordance with regulations and established guidelines using protocols reviewed and approved by the Pfizer Worldwide Research and Development (WRD, or other) Institutional Animal Care and Use Committee.
Male C57Bl6 mice were maintained on a 12-h light/dark cycle in a temperature- and humidity-controlled environment with free access to food and water. The test compounds (Examples 1 and 2 and Comparative Compounds 1-3) were administered as a subcutaneous dose of 1 mg/kg which was delivered in a dose volume of 10 mL/kg. The dose solution for all compounds was formulated in 5% DMSO/5% cremophor/90% saline. Blood and brain samples were collected at 0.5, 1, 2, 4, 8, 12, and 24 h post-dose (n=3 per time point). Blood samples were collected into tubes containing sodium fluoride and 4-(2-aminoethyl)benzenesulfonyl fluoride hydrochloride (AEBSF; final concentration 2 mg/mL) to inhibit hydrolase activity and placed on wet ice. Following centrifugation to afford plasma, the samples were transferred to polypropylene tubes and stored frozen at −20° C. to −80° C. until analysis. Immediately following blood collection the mice were euthanized by cervical dislocation and the brains were removed. The cerebellum was immediately frozen in liquid nitrogen and stored at −80° C. until analysis.
Cerebellum samples were thawed, diluted 1:4 (w/v) with water, and homogenized using an H-speed dispersator. Standards and controls were prepared in a similar manner using a brain homogenate prepared from untreated animals. The plasma standard curves were generated with species specific plasma. All plasma and brain homogenate samples were quantified via LC/MS-MS using multiple reaction monitoring with non-validated methods.
Equilibrium dialysis using standard procedures [See Di et al., “Species independence in brain tissue binding using brain homogenates”; Drug Metab Dispos 39:1270-1277, 2011) were used for determination of the unbound fraction of the test compounds (Examples 1 and 2 and Comparative Compounds 1-3) in mouse plasma (fu,p; see Di et al., “impact of recovery on fraction unbound using equilibrium dialysis”; J Pharm Sci 101:1327-1335, 2012) and unbound fraction in rat brain homogenate (fu,b; see Di et al., “Species independence in brain tissue binding using brain homogenates”; Drug Metab Dispos 39:1270-1277, 2011). The determination of the unbound fraction in plasma also included the addition of AEBSF at a final concentration of 2 mg/mL to the incubation.
The pharmacokinetic parameters were computed by non-compartmental analysis using Watson Bioanalytical LIMS version 7.5. The AUC values were calculated using the linear trapezoidal method for both brain and plasma. Measured total plasma (Cp) and brain (Cb; assuming brain tissue density of 1 g/mL) concentrations were converted to unbound (free) values using the matrix specific binding factor (fu, p or fu,b) to determine free plasma (Cp,u) and free brain (Cb,u) values. All neurocompartmental ratios (Cb,u/Cp,u) were calculated through use of AUC values with the exception of Comparative Compounds 1 and 2 which used the mean of individual animal values due to insufficient data to calculate an AUC value.

[4] = In vitro intrinsic clearance in human liver microsomes (HLM); format: in vitro ADME; conditions: pH 7.4, 1 μM substrate, NADPH, 37° C., read-out: HLM CLint, app
Method: Test Compounds (Example 1-3 and Comparative-Compounds 1-4) were prepared as solutions in DMSO. The final concentration of DMSO in the incubation was <0.1% (v/v). […] (all final concentrations) in a 384-well plate. The reaction mixture was pre-warmed at 37° C. for 10 min prior to initiation of the incubation. The incubation was quenched with acetonitrile containing internal standards at the following time points: 1, 4, 7, 12, 20, 25, 45, and 60 min (individual incubation plates per time point) with a subsequent addition of water. The samples were vortexed followed by centrifugation and the supernatant was analyzed by LC/MS-MS using multiple reaction monitoring. For control experiments, NADPH was omitted from the incubations.
The microsomal t½ (min) was obtained from a log-linear plot of the substrate depletion versus incubation time and was scaled to hepatic intrinsic clearance (CLint,app (μL/min/mg protein) using the following equation: […]

SMILES	half-life [1] [h]	HHEPs CLint, app [2] [μL/min/million]	Kp,uu (unbound brain/unbound plasma ratio) [3]	microsomal CLint at 1 μM [4] [µL/min/mg]
CN([C@H]1COC2(CCN(C(=O)O[C@H](CO)C(F)(F)F)CC2)C1)S(=O)(=O)CC1CC1 [Comparative-Compound 1, (2R)-1,1,1-trifluoro-3-hydroxypropan-2-yl (3R)-3-{[(cyclopropylmethyl)sulfonyl](methyl)amino}-1-oxa-8-azaspiro[4.5]decane-8-carboxylate]	0.5	5.5	0.18	< 12.5
CN([C@H]1COC2(CCN(C(=O)O[C@H](CO)C(F)(F)F)CC2)C1)S(=O)(=O)C1CC1 [Comparative-Compound 2, (2R)-1,1,1-trifluoro-3-hydroxypropan-2-yl (3R)-3-[(cyclopropylsulfonyl)-(methyl)amino]-1-oxa-8-azaspiro[4.5]decane-8-carboxylate]	1.31	<3.52	0.29	< 8
CN([C@H]1COC2(CCN(C(=O)O[C@H](CO)C(F)(F)F)CC2)C1)S(=O)(=O)c1ccccc1 [Comparative-Compound 3, (2R)-1,1,1-trifluoro-3-hydroxypropan-2-yl (3R)-3-[methyl(phenylsulfonyl)-amino]-1-oxa-8-azaspiro[4.5]decane-8-carboxylate]	5	10.6	0.51	14.8
